Each structure is given as a SMILES string. The source made the active and inactive calls. The calls are words filed in the database; no cut-off is given here.

One series has as its system 4T1. The series is described as follows: Antitumor immunity against mouse 4T1 cells implanted in BALB/c mouse assessed as increase in serum IL-6 level at 10 mg/kg,ip every other day for 14 days by ELISA. It is filed as functional, organism-based. The note with it: time 14.0 day.
Series [1] has as its system MDA-MB-231. The series is described as follows: Induction of cell cycle arrest in human MDA-MB-231 cells assessed as accumulation of cells at G0/G1 phase at 1 uM incubated for 24 hrs by RNase/PI staining based flow cytometry (reference value: 82.3 %). It is filed as functional. A general note: Flow cytometry measures light scatter and fluorescence of single cells or particles in a stream.

For series [2], the system named is MDA-MB-231. The series is described as follows: Induction of cell cycle arrest in human MDA-MB-231 cells assessed as accumulation of cells at G2/M phase at 2 uM incubated for 24 hrs by RNase/PI staining based flow cytometry (reference value: 11.3 %). It is filed as functional.
Series [3] in a line: Toxicity in BALB/c mouse implanted with mouse 4T1 cells assessed as histopathological change in spleen at 10 mg/kg,ip every other day for 14 days by hematoxylin and eosin staining analysis. It is filed as organism-based. The note with it: in vivo, 336 h, time 14 day.

For `CN(C)CCN(C)c1ccc(-c2nc3ccc(C(F)(F)F)cc3nc2-c2ccc(N(C)CCN(C)C)cc2)cc1`, in the series with 4T1, the result was Active. Also, the values for the Activity (in the series on MDA-MB-231 [1]; with MDA-MB-231 [2]; in series [3]) were 82.1%, 11.5% and “Non-Toxic”, respectively.

Values taken from ChEMBL document CHEMBL5550165, “Novel quinoxaline analogs as telomeric G-quadruplex ligands exert antitumor effects related to enhanced immunomodulation” (Eur J Med Chem, 2024).
